What was measured:
Assay type in all cases: cell-based
Brd4 (S) [1] = biological target: T1, Brd4 (S) (Homo sapiens, UniProt O60885); experiment: Time-dependent BET degradation, immunoblot, HEK293 cells; design: dose or concentration left out as unconfirmed; conditions: timecourse 0-8 h
T1 construct: endogenous in cells; host or cells: HEK293, HeLa
Description: (§1) Cell culture. HeLa (CCL-2) and HEK293 (CRL-1573) cells were purchased from ATCC and cultured in DMEM medium (Gibco) supplemented with 10% FBS, 100 μg/mL penicillin/streptomycin and L-glutamine. Cells were grown at 37° C. and 5% CO2, and were kept no longer than 30 passages. All cell lines were routinely tested for mycoplasma contamination using MycoAlert kit from Lonza.
(§2) Immunoblotting. proteins were separated by SDS-PAGE on NuPage 4-12% Bis-Tris gels, followed by transfer to Amersham Protran 0.45 NC nitrocellulose membrane (GE Healthcare) using wet transfer. Membranes were blocked using 5% w/v milk in Tris-buffered saline (TBS) with 0.1% Tween-20. Blots were probed (overnight at 4° C.) using anti-Brd2 (Abcam ab139690, 1:2,000 dilution), anti-Brd3 (Abcam ab50818, 1:500 dilution), and anti-Brd4 (Abcam ab128874, 1:1,000 dilution) primary antibodies, as appropriate. The next day, blots were washed with TBST and incubated (1 hr at RT) with anti-Tubulin hFAB-rhodamine (BioRad, 12004166) primary antibody, and either anti-rabbit IRDye 800CW (Licor 1:10,000 dilution) or anti-mouse IRDye 800CW (Licor 1:10,000 dilution) secondary antibody. Blots were developed using a Bio-Rad ChemiDoc MP Imaging System, and band quantification was performed using Image Studio software (LiCor). Band intensities were normalized to the tubulin loading control and reported as % of the average 0.1% DMSO vehicle intensity. Degradation data was plotted and analysed using Prism (Graphpad, version 8).
(§3) HeLa (3×10^5) and HEK293 (0.5×10^6) cells were seeded in standard 6-well plates (2 mL medium) overnight before treatment with compounds at 1 μM concentration, with a final DMSO concentration of 0.1% v/v. After incubation for the desired time (0-8 h), cells were washed with DPBS (Gibco) and lysed using 85 μL RIPA buffer (Sigma-Aldrich) supplemented with cOmplete Mini EDTA-free protease inhibitor cocktail (Roche) and benzonase. Lysates were clarified by centrifugation (20,000 g, 10 min, 4° C.) and the total protein content of the supernatant was quantified using a Bradford colorimetric assay. Samples were prepared using equal amounts of total protein and LDS sample buffer (Invitrogen).
(§4) Representative blots in FIG. 4 show depletion of Brd2, Brd3 and Brd4 protein levels following 1 μM treatment at various time points with representative compounds. Band intensities were normalized to the β-tubulin loading control and reported as % of the average 0.1% DMSO vehicle intensity, with each point representing mean±SEM of two independent experiments (n=2). Degradation data was plotted and analysed using Prism (Graphpad, version 8).
(§5) T½ (h) is the time required to deplete 50% of the protein relative to DMSO

Brd4 (L) = biological target: T2, Brd4 (L) (Homo sapiens, UniProt O60885); experiment: Time-dependent BET degradation, immunoblot, HeLa cells; design: dose or concentration left out as unconfirmed; conditions: timecourse 0-8 h
T2 construct: endogenous in cells; host or cells: HEK293, HeLa
Description: as §1, §2, §3, §4, §5

Brd4 (S) [2] = biological target: T1, Brd4 (S); experiment: as above; design: dose or concentration left out as unconfirmed; conditions: timecourse 0-8 h
Description: as §1, §2, §3, §4, §5

Brd2 [3] = biological target: T3, Brd2 (Homo sapiens, UniProt P25440); experiment: Time-dependent BET degradation, immunoblot, HEK293 cells; design: endogenous in cells; host or cells: HEK293; conditions: HEK293, Brd2, 1 μM, timecourse 0-8 h
Description: as §1, §2, §3, §4, §5

Brd3 [4] = biological target: T4, Brd3 (Homo sapiens, UniProt Q15059); experiment: as above; design: endogenous in cells; host or cells: HEK293; conditions: HEK293, Brd3, 1 μM, timecourse 0-8 h
Description: as §1, §2, §3, §4, §5

Brd2 [5] = biological target: T3, Brd2; experiment: Time-dependent BET degradation, immunoblot, HeLa cells; design: endogenous in cells; host or cells: HeLa; conditions: Brd2, 1 μM, timecourse 0-8 h
Description: as §1, §2, §3, §4, §5

Brd3 [6] = biological target: T4, Brd3; experiment: as above; design: endogenous in cells; host or cells: HeLa; conditions: Brd3, 1 μM, timecourse 0-8 h
Description: as §1, §2, §3, §4, §5

Brd4 = biological target: T5, Brd4 (Homo sapiens, UniProt O60885); experiment: Mechanistic evaluation of Brd4 degradation in HAP1 cells (bortezomib, degrasyn or I-BET726 pre-treatment); conditions: 6 h
T5 construct: endogenous in cells; host or cells: HEK293, HAP1, MV4-11
Description: as §2
HAP1 (1×10^6) cells were seeded in standard 6-well plates (2 mL medium) overnight before pre-treatment with inhibitors (10 μM bortezomib, 5 μM degrasyn or 1 μM I-BET726). After a 0.5 h pre-incubation time, cells were subsequently treated with vehicle, 0.1 μM MZ1 or 0.1 μM 05IB9, yielding a final overall DMSO concentration of 0.2% v/v. After 6 h incubation, cells were washed with DPBS (Gibco) and lysed using 85 μL RIPA buffer (Sigma-Aldrich) supplemented with cOmplete Mini EDTA-free protease inhibitor cocktail (Roche) and benzonase. Lysates were clarified by centrifugation (20,000 g, 10 min, 4° C.) and the total protein content of the supernatant was quantified using a Bradford colorimetric assay. Samples were prepared using equal amounts of total protein and LDS sample buffer (Invitrogen).
Representative blots from HAP1 lysates in FIG. 9 show depletion of Brd4 protein levels following 6 h treatment with 0.1 μM 05IB9 or MZ1, in the presence and absence of 5 μM degrasyn and 10 μM bortezomib. Brd4 band intensities were normalized to β-tubulin loading control and reported in FIG. 9B as % of the average 0.1% DMSO vehicle intensity. Each bar is mean±SEM of three independent experiments performed in duplicate (n=3). […] Furthermore, excess […] competes with 05IB9, resulting in reduced degradation of Brd4.

T4 sequence (Q15059 whole entry): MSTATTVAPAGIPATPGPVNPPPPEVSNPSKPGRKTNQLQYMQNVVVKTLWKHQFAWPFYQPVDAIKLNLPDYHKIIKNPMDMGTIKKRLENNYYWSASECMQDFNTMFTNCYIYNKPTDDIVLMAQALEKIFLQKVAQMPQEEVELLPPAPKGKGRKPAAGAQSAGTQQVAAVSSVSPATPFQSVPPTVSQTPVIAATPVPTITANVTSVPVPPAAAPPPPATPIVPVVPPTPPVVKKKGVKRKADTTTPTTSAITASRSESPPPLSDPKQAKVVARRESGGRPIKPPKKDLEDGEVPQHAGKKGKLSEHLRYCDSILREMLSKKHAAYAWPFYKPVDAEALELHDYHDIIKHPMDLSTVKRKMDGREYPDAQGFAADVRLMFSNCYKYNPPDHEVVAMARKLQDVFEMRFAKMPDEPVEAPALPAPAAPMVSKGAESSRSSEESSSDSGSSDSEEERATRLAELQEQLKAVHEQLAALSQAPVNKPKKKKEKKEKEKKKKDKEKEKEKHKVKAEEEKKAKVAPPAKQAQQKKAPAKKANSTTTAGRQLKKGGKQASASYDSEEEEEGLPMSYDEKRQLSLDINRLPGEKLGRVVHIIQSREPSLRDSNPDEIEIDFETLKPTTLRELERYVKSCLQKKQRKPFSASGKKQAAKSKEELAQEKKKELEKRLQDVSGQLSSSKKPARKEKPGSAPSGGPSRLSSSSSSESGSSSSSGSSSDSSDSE
T3 sequence (P25440 whole entry): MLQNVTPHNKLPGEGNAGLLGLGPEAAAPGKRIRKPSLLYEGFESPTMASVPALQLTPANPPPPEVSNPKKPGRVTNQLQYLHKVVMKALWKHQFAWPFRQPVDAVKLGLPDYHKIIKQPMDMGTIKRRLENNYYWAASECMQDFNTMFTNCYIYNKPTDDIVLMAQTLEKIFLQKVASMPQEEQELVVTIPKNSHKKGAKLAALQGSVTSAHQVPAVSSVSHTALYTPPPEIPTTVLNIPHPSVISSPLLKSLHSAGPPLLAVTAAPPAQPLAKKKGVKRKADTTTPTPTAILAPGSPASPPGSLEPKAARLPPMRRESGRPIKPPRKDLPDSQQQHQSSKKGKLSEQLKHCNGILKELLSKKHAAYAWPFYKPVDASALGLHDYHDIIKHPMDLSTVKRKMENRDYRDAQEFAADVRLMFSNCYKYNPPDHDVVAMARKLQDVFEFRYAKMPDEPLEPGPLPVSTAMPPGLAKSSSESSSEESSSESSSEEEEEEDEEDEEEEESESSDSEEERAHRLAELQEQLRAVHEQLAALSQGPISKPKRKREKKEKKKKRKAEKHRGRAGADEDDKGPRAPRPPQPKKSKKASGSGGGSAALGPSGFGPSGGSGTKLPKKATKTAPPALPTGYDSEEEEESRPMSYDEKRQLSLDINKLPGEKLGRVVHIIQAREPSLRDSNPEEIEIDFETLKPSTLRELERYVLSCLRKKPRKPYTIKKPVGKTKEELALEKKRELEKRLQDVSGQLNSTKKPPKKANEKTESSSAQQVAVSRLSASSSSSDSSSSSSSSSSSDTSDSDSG

| Dmax (Brd4 (S) [1]) [%] | Dmax (Brd4 (L)) [%] | Dmax (Brd4 (S) [2]) [%] | Dmax at 1 µM (Brd2 [3]) [%] | Dmax at 1 µM (Brd3 [4]) [%] | Dmax at 1 µM (Brd2 [5]) [%] | Dmax at 1 µM (Brd3 [6]) [%] | Brd4 protein levels (Brd4; HAP1, 0.1 μM) | Structure (SMILES) | Brd4 degradation in the presence of bortezomib or degrasyn (Brd4; HAP1, 0.1 μM compound, 0.5 h pre-treatment with 10 μM bortezomib or 5 μM degrasyn) |
| --- | --- | --- | --- | --- | --- | --- | --- | --- | --- |
| 100 | 79 | 100 | 83 | 100 | 54 | 100 |  | CCCC(NC(=O)/C(C#N)=C/c1cccc(Br)n1)c1ccc(OCC=NOCC(=O)NCCOCCOCCOCCOCCOCCNC(=O)c2ccc3c(c2)[C@H](Nc2ccc(Cl)cc2)C[C@H](C)N3C(C)=O)cc1 (some centres unmarked) [Example 05IB3] |  |
| 97 | 100 | 100 | 76 | 74 | 79 | 90 |  | CCCC(NC(=O)/C(C#N)=C/c1cccc(Br)n1)c1ccc(OCCOCCOCCOCCOCCOCCOCCNC(=O)c2ccc(-c3ccc4c(c3)[C@H](Nc3ccc(Cl)cc3)C[C@H](C)N4C(C)=O)cc2)cc1 (some centres unmarked) [Example 05IB6] |  |
| 96 | 100 | 100 | 73 | 60 | 76 | 80 | depletion | CCCC(NC(=O)/C(C#N)=C/c1nccs1)c1ccc(OCCOCCOCCOCCOCCOCCOCCNC(=O)c2ccc(-c3ccc4c(c3)[C@H](Nc3ccc(Cl)cc3)C[C@H](C)N4C(C)=O)cc2)cc1 (some centres unmarked) [Example 05IB9] | completely blocked in the presence of bortezomib and degrasyn |
